The subject of the first test is rabbit skeletal myofibrils (fast skeletal myofibrils). Nature of the test: Activation of fast skeletal myofibrils (PUMA assay, PK/LDH-coupled ATPase at pCa25). The class given is biochemical. To be noted: AC1.4 determined according to the procedure of Example 39; reported as class symbols. The procedure, abridged:
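Detergent-washed rabbit psoas myofibrils (~90% fast fibres, calcium-regulated) assayed at calcium giving 25% of maximal ATPase rate (pCa25). ADP turnover coupled via pyruvate kinase/lactate dehydrogenase to NADH oxidation, read at 340 nm. Buffer 12 mM PIPES, 2 mM MgCl2, 1 mM DTT, pH 6.8; AC1.4 values derived.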
Take `NC(=O)c1cccc(-c2ccc(NCC3(C(N)=O)CCC3)nn2)c1` [3-(6-{[(carbamoylcyclo-butyl)methyl]amino}pyridazin-3-yl)benzamide]: the “Mean AC1.4” value was “D (D=>20 uM)”.
Still for that read-out and setting: the same measure for `CC(C)(CNc1ccc(-c2ccc(=O)[nH]c2)nn1)c1ccc(F)cc1`: “B (B=1-10 uM)”; for `CC(C)(CNc1ccc(-c2noc(C(N)=O)n2)nn1)c1ccc(F)cc1` [3-(6-{[2-(4-fluorophenyl)-2-methylpropyl]amino}pyridazin-3-yl)-1,2,4-oxadiazole-5-carboxamide]: “C (C=10-20 uM)”; for `Nc1ccc(-c2ccc(NCC3(c4ncccc4F)CCC3)nn2)nc1` [[6-(5-amino(2-pyridyl))pyridazin-3-yl]{[(3-fluoro(2-pyridyl))cyclobutyl]methyl}amine]: “A (A=<1 uM)”.
On the same count and under the same terms, the same measure for `CC(C)(CNc1ccc(-c2n[nH]c(=O)o2)nn1)c1ccc(F)cc1` [5-(6-{[2-(4-fluorophenyl)-2-methylpropyl]amino}pyridazin-3-yl)-1,3,4-oxadiazolin-2-one]: “C (C=10-20 uM)”.
Same read-out and setting: the same measure for `CC(C)(CNc1ccc(C(=O)N2CCNCC2)nn1)c1ccc(F)cc1` [6-{[2-(4-fluorophenyl)-2-methylpropyl]amino}pyridazin-3-yl piperazinyl ketone]: “D (D=>20 uM)”; for `CC(C)(CNc1ccc(C(=O)N2CCNC(C(N)=O)C2)nn1)c1ccc(F)cc1` (stereo not shown) [4-[(6-{[2-(4-fluorophenyl)-2-methylpropyl]amino}pyridazin-3-yl)carbonyl]piperazine-2-carboxamide]: “D (D=>20 uM)”; for `Cc1n[nH]c2cc(-c3ccc(NCC(C)(C)c4ccc(F)cc4)nn3)ccc12` [[2-(4-fluorophenyl)-2-methylpropyl][6-(3-methyl(1H-indazol-6-yl))pyridazin-3-yl]amine]: “B (B=1-10 uM)”.
On to `CC(=O)N1CC(CNc2ccc(-c3ccc4[nH]ncc4c3)nn2)(c2ncccc2F)C1` [1-acetyl-3-(3-fluoro(2-pyridyl))-3-{[(6-(1H-indazol-5-yl)pyridazin-3-yl)amino]methyl}azetidine], for which the “Mean AC1.4” value is “D (D=>20 uM)”.
Same read-out and setting: the same measure for `CC(C)(CNc1ccc(-c2ccc3[nH]nc(C(=N)N)c3c2)nn1)c1ccc(F)cc1` [5-(6-{[2-(4-fluorophenyl)-2-methylpropyl]amino}pyridazin-3-yl)-1H-indazole-3-carboxamidine]: “B (B=1-10 uM)”; for `CC(C)(CNc1ccc(-c2nnn[nH]2)nn1)c1ccc(F)cc1` [(6-(1H-1,2,3,4-tetraazol-5-yl)pyridazin-3-yl)[2-(4-fluorophenyl)-2-methylpropyl]amine]: “D (D=>20 uM)”.
The same measure, in the same setting: next, `CC(C)(CNc1ccc(-c2ccc3[nH]nc(N)c3c2)nn1)c1ccc(C(N)=O)cc1`: “D (D=>20 uM)”; `CC(C)(CNc1ccc(-c2ccc3c(N)noc3c2)nn1)c1ccc(F)cc1` [[6-(3-aminobenzo[d]isoxazol-6-yl)pyridazin-3-yl][2-(4-fluorophenyl)-2-methylpropyl]amine]: “A (A=<1 uM)”.
Regarding `Nc1n[nH]c2ccc(-c3ccc(NCC4(c5ccccc5F)CCCC4)nn3)cc12` [[6-(3-amino(1H-indazol-5-yl))pyridazin-3-yl]{[(2-fluorophenyl)cyclopentyl]meth-yl}amine], the “Mean AC1.4” value was “A (A=<1 uM)”.
Regarding `Nc1n[nH]c2ccc(-c3ccc(NCC4(c5ccc(F)cn5)CCC4)nn3)cc12` [[6-(3-amino(1H-indazol-5-yl))pyridazin-3-yl]{[(5-fluoro(2-pyridyl))cyclobutyl]methyl}amine], the “Mean AC1.4” value is on record as “A (A=<1 uM)”.

The test is the same for the next values; noted with them: median AC1.4 class, procedure of Example 39.
In the case of `CC(C)n1[nH]c2ccc(-c3ccc(NCC4(c5ncccc5F)CCC4)nn3)cc2c1=O`, the “Mean AC1.4” value is recorded as “B (B=1-10 uM)”.
With `NC(=O)c1ccc(F)c(-c2ccc(NC3(c4ncccc4F)CCCC3)nn2)c1`, the “Mean AC1.4” value is on record as “A (A=<1 uM)”.
Still for that read-out and setting: the same measure for `O=c1[nH]nc(-c2cnc(-c3ccc(NCC4(c5ncccc5F)CCC4)nn3)s2)o1` [5-{2-[6-({[(3-fluoro-2-pyridyl)cyclobutyl]methyl}ami-no)pyridazin-3-yl]-1,3-thiazol-5-yl}-1,3,4-oxadiazolin-2-one]: “B (B=1-10 uM)”; for `CC(C)(Nc1ccc(-c2cc(C(N)=O)ccc2F)nn1)c1cccc(=O)[nH]1`: “D (D=>20 uM)”.
Regarding `COC(=O)c1ncccc1-c1ccc(NCC2(c3ncccc3F)CCC2)nn1`, the “Mean AC1.4” value is on record as “C (C=10-20 uM)”.
In the case of `O=C(NCc1cnc(-c2ccc(NCC3(c4ncccc4F)CCC3)nn2)s1)[C@@H]1CCCN1` [((2S)pyrrolidin-2-yl)-N-({2-[6-({[(3-fluoro(2-pyridyl))cyclobutyl]methyl}ami-no)pyridazin-3-yl](1,3-thiazol-5-yl)}methyl)carboxamide], the “Mean AC1.4” value is recorded as “A (A=<1 uM)”.
The same measure, in the same setting: the same measure for `Fc1cccnc1C1(CNc2ccc(-c3ccccc3)nn2)CCC1` [{[(3-fluoro(2-pyridyl))cyclobutyl]methyl}(6-phenylpyridazin-3-yl)amine]: “A (A=<1 uM)”; for `O=C(O)c1ccc(F)c(-c2ccc(NC3(c4ccc(F)cc4)CCC3)nn2)c1`: “B (B=1-10 uM)”.
On the same count and under the same terms, the same measure for `COc1cccc(C2(Nc3ccc(-c4cccc(C(N)=O)c4)nn3)CCC2)n1`: “B (B=1-10 uM)”.
On the same count and under the same terms, the same measure for `NCc1ccc(F)cc1-c1ccc(NCC2(c3ncccc3F)CCC2)nn1` [{6-[2-(aminomethyl)-5-fluorophenyl]pyridazin-3-yl} {[(3-fluoro(2-pyridyl))cyclobutyl]methyl}amine]: “C (C=10-20 uM)”.

The test is the same for the next values; noted with them: median AC1.4 reported as class; procedure of Example 39.
As to `NC(=O)NC1CCc2nc(-c3ccc(NCC4(c5ncccc5F)CCC4)nn3)sc2C1` (stereo not shown) [amino-N-{2-[6-({[(3-fluoro(2-pyridyl))cyclobutyl]methyl}ami-no)pyridazin-3-yl](4,5,6,7-tetrahydrobenzothiazol-6-yl)}amide], the “Mean AC1.4” value is on record as “D (D=>20 uM)”.
For `CN1CC(NC(=O)c2cccc(-c3ccc(NC[C@]4(c5ncccc5F)C[C@H](F)C4)nn3)c2)C1` [{3-[6-({[3-fluoro-1-(3-fluoro(2-pyridyl))cyclobutyl]methyl}ami-no)pyridazin-3-yl]phenyl}-N-(1-methylazetidin-3-yl)carboxamide], the “Mean AC1.4” value is “B (B=1-10 uM)”.
Regarding `CNC(=O)c1ccc(O)c(-c2ccc(NC[C@]3(c4ncccc4F)C[C@H](F)C3)nn2)c1` [{3-[6-({[3-fluoro-1-(3-fluoro(2-pyridyl))cyclobutyl]methyl}ami-no)pyridazin-3-yl]-4-hydroxyphenyl}-N-methylcarboxamide], the “Mean AC1.4” value is “B (B=1-10 uM)”.
Same read-out and setting: the same measure for `CC(=O)NCc1cccc(-c2ccc(NC[C@]3(c4ncccc4F)C[C@H](F)C3)nn2)c1` [N-({3-[6-({[3-fluoro-1-(3-fluoro(2-pyridyl))cyclobutyl]methyl}ami-no)pyridazin-3-yl]phenyl}methyl)acetamide]: “B (B=1-10 uM)”.
Same read-out and setting: next, `CC(C)[C@H](N)C(=O)OCC(=O)NCc1cnc(-c2ccc(NCC3(c4ncccc4F)CCC3)nn2)s1` [[N-({2-[6-({[(3-fluoro-2-pyridyl)cyclobutyl]methyl}ami-no)pyridazin-3-yl]-1,3-thiazol-5-yl}methyl)carbamoyl]methyl (2S)-2-amino-3-methylbutanoate]: “A (A=<1 uM)”; `CN(C)C(=O)Cc1cnc(-c2ccc(NCC3(c4ncccc4F)CCC3)nn2)s1` [2-{2-[6-({[(3-fluoro(2-pyridyl))cyclobutyl]methyl}ami-no)pyridazin-3-yl](1,3-thiazol-5-yl)}-N,N-dimethylacetamide]: “B (B=1-10 uM)”.

Source of the values: US10076519B2 (CYTOKINETICS, INC., priority 2010, dated 2018).
